Test results from US4060608A, “Substituted hydroxymethyl benzodiazepines” (DDSA Pharmaceuticals, priority 1975, dated 1977).
Counter-ions that a name gives are not always drawn.

Experiments:
Type in all cases: in vivo
[1] = 7-day median lethal dose (LD50) in female mice; details: mouse, in vivo, 7-day
From the text: (§1) The compounds in which R4 is furyl are of particular interest. Their psychotropic action is as disclosed above, but in addition their toxicity tends to be low. […] The higher toxicity at lower temperatures was thought to be caused by […] induced by the compound under test.

[2] = system: female mice; experiment: 7-day median lethal dose (LD50) in female mice
From the text: as §1

[3] = diuretic activity at sedating dose; details: dose levels producing sedation (200 mg/Kg)
From the text: At a clinical dose level it can therefore be assumed that there would be no diuretic effect.

[4] = system: mice; experiment: Rotarod test (neuro-muscular coordination), groups of 5 mice, 2 minute test periods for 5 hours after dosage
From the text: (§2) In humans, this retention of coordination would avoid or reduce the disadvantages of loss of concentration and related side effects commonly associated with benzodiazepine drugs. The observation of this effect was made on groups of five mice subjected to a Rotarod test.

[5] = system: mice; experiment: observation of sedation/tranquillization and hypnotic state in the mice of the Rotarod test
From the text: as §2
*2/5 mice in hypnotic state - not returned to rotarod.

## CN(C1=Nc2ccc(Cl)cc2C(c2ccccc2)=[N+]([O-])C1)C(O)c1ccco1 (stereo not shown) [SH60, 7-chloro-2-(N-methyl-N-1-hydroxyfurfurylamino)-5-phenyl-3H-1,4-benzodiazepine-4-oxide hydrochloride]
[1]; at 23° C
  LD50 at 168 h: 900 mg/kg
[1]; at 30° C
  LD50 at 168 h: 1080 mg/kg
[2]
  toxicity, indicated by the LD50, compared with conventional and commercially used benzodiazepine drugs: significantly lower than that of conventional and commercially used benzodiazepine drugs
[3]
  diuretic activity: minimal diuretic activity
[4]; 20 mg./kg., 0 mins. after dosage, 5 mice
  Total Number of Falls: 2
[4]; 20 mg./kg., 15 mins. after dosage, 5 mice
  Total Number of Falls: 0
[4]; 20 mg./kg., 30 mins. after dosage, 5 mice
  Total Number of Falls: 0
[4]; 20 mg./kg., 45 mins. after dosage, 5 mice
  Total Number of Falls: 0
[4]; 20 mg./kg., 60 mins. after dosage, 5 mice
  Total Number of Falls: 0
[4]; 20 mg./kg., 90 mins. after dosage, 5 mice
  Total Number of Falls: 0
[4]; 20 mg./kg., 120 mins. after dosage, 5 mice
  Total Number of Falls: 0
[4]; 20 mg./kg., 180 mins. after dosage, 5 mice
  Total Number of Falls: 0
[4]; 20 mg./kg., 240 mins. after dosage, 5 mice
  Total Number of Falls: 0
[4]; 20 mg./kg., 300 mins. after dosage, 5 mice
  Total Number of Falls: 0
[4]; 100 mg./kg., 0 mins. after dosage, 5 mice
  Total Number of Falls: 2
[4]; 100 mg./kg., 15 mins. after dosage, 5 mice
  Total Number of Falls: 0
[4]; 100 mg./kg., 30 mins. after dosage, 5 mice
  Total Number of Falls: 0
[4]; 100 mg./kg., 45 mins. after dosage, 5 mice
  Total Number of Falls: 0
[4]; 100 mg./kg., 60 mins. after dosage, 5 mice
  Total Number of Falls: 0
[4]; 100 mg./kg., 90 mins. after dosage, 5 mice
  Total Number of Falls: 0
[4]; 100 mg./kg., 120 mins. after dosage, 5 mice
  Total Number of Falls: 0
[4]; 100 mg./kg., 180 mins. after dosage, 5 mice
  Total Number of Falls: 0
[4]; 100 mg./kg., 240 mins. after dosage, 5 mice
  Total Number of Falls: 0
[4]; 100 mg./kg., 300 mins. after dosage, 5 mice
  Total Number of Falls: 0
[4]; 200 mg./kg., 0 mins. after dosage, 5 mice
  Total Number of Falls: 0
[4]; 200 mg./kg., 15 mins. after dosage, 5 mice
  Total Number of Falls: 0
[4]; 200 mg./kg., 30 mins. after dosage, 5 mice
  Total Number of Falls: 23
[4]; 200 mg./kg., 45 mins. after dosage, 5 mice
  Total Number of Falls: 27
[4]; 200 mg./kg., 60 mins. after dosage, 5 mice
  Total Number of Falls: 36
[4]; 200 mg./kg., 90 mins. after dosage, 5 mice
  Total Number of Falls: 34
[4]; 200 mg./kg., 120 mins. after dosage, 5 mice
  Total Number of Falls: 40
[4]; 200 mg./kg., 180 mins. after dosage, 2/5 mice in hypnotic state - not returned to rotarod
  Total Number of Falls: ≥ 26
[4]; 200 mg./kg., 240 mins. after dosage, 2/5 mice in hypnotic state - not returned to rotarod
  Total Number of Falls: ≥ 37
[4]; 200 mg./kg., 300 mins. after dosage, 2/5 mice in hypnotic state - not returned to rotarod
  Total Number of Falls: ≥ 30
[4]; mice, 20 mg/Kg
  effect on muscular coordination: no apparent effect on muscular coordination
[4]; mice, 100 mg/Kg
  effect on muscular coordination: no apparent effect on muscular coordination
[4]; mice, 200 mg/Kg
  difficulty in maintaining balance on the rotating rod: all animals showed difficulty in maintaining balance on the rotating rod
[4]; mice, dose levels producing tranquilizing and sedative effects
  neuro-muscular coordination: normal neuro-muscular coordination
[5]; 200 mg./kg., footnote to 180, 240 and 300 mins. after dosage
  mice in hypnotic state - not returned to rotarod: 2/5
[5]; mice, 20 mg/Kg
  sedation/tranquillization: apparent sedation/tranquillization
[5]; mice, 100 mg/Kg
  sedation/tranquillization: apparent sedation/tranquillization
[5]; mice, 200 mg/Kg, after 30 minutes
  sedation: marked sedation

## CN(C)CCCN1c2ccccc2Sc2ccc(Cl)cc21 [Chlorpromazine, reference compound]
[4]; 15 mg./kg., 0 mins. after dosage, 5 mice
  Total Number of Falls: 0
[4]; 15 mg./kg., 15 mins. after dosage, 5 mice
  Total Number of Falls: 1
[4]; 15 mg./kg., 30 mins. after dosage, 5 mice
  Total Number of Falls: 0
[4]; 15 mg./kg., 45 mins. after dosage, 5 mice
  Total Number of Falls: 5
[4]; 15 mg./kg., 60 mins. after dosage, 5 mice
  Total Number of Falls: 13
[4]; 15 mg./kg., 90 mins. after dosage, 5 mice
  Total Number of Falls: 17
[4]; 15 mg./kg., 120 mins. after dosage, 5 mice
  Total Number of Falls: 14
[4]; 15 mg./kg., 180 mins. after dosage, 5 mice
  Total Number of Falls: 9
[4]; 15 mg./kg., 240 mins. after dosage, 5 mice
  Total Number of Falls: 13
[4]; 15 mg./kg., 300 mins. after dosage, 5 mice
  Total Number of Falls: 9
